{"source": "patent US20250319139A1", "about": "“METHODS FOR TREATING NEUROINFLAMMATION” (University of Virginia Patent Foundation, priority 2021, published 2025)", "assay_type_in_all_cases": "in vivo, mouse", "key": {"C57BL/6J mice [1]": {"tested_on": "C57BL/6J mice", "assay": "Barnes maze test, young adult mice"}, "C57BL/6J mice [2]": {"tested_on": "C57BL/6J mice", "assay": "Novel object recognition test, young adult mice"}, "IL-6 [3]": {"tested_on": "IL-6", "assay": "IL-6 in the hippocampus by ELISA", "settings": "young adult mice with exercise and surgery; intraperitoneal valeric acid", "experimental": "IL-1β, IL-6, C3 and GDNF in the hippocampus were detected by using ELISA kits. For testing the IL-1β, IL-6 and GDNF, brain tissues were homogenized on ice in the RIPA buffer containing 25 mM Tris-HCl with pH 7.6, 150 mM NaCl, 1% sodium deoxycholate, 0.1% SDS and a protease inhibitor cocktail containing 10 mg/ml aproteinin, 5 mg/ml peptastin, 5 mg/ml leupetin and 1 mM phenylmethane sulfonylfluoride. For C3 testing, brain tissues were homogenized on ice in the PTR buffer (supplied in the kit). The supernatant was collected for ELISA detection after the homogenate was centrifuged at 13,000 g for 20 min at 4° C. and the protein concentration was determined by the BCA protein assay (Bio-Rad, Hemel Hempstead, Herts, UK). IL-1β, IL-6, C3 and GDNF in supernatant of brain were detected according to the manufacturer's instruction for ELISA, and the amount of them in each sample in the brain was normalized by its total protein content and was expressed as pg/mg protein."}, "[4]": {"tested_on": "dendritic branches and spines of hippocampal neurons", "assay": "Golgi staining, dendritic arborization", "settings": "young adult mice with exercise and surgery; intraperitoneal valeric acid", "experimental": "Golgi staining was performed using FD Rapid GolgiStain™ Kit. Nineteen days after surgery, brains of 6 mice in each group were immersed in the impregnation solution (solutions A and B: 1:1) for 2 weeks and then transferred to solution C for 3 days. Coronal brain sections at a thickness of 100 μm and around-2.7 mm from bregma were cut on a vibratome (Microslicer® 10110, Ted Pella, Inc. California, USA). As described before, more than 10 well individualized neurons in the dentate gyrus (DG) region of the hippocampus were randomly selected from each mouse, and sequential optical multiple-layers scanning images were taken at an interval 2.0 μm along the z-axis (3DHISTECH, Pannoramic MIDI, Hungary) with 20× objective. The multiple-layer scanning files were superposed to become one clear scanning file that can be viewed with Caseviewer (3DHISTECH, Hungary) on a computer. The total branch number and dendritic length were measured by Fiji software (Fiji-win64, NIH, USA). The complexity of total dendritic trees (intersections) was estimated using Sholl analysis. For spine density measurement, 5 neurons were selected from each animal. […] The spine numbers in 40 μm segments were counted by an observer who was blind to group assignment. The results were expressed as the number of spines/10 μm segments. […]"}, "[5]": {"assay": "Plasma SCFA profiling by GC-MS", "settings": "mice with exercise and surgery, intraperitoneal valeric acid; blood 7 days after surgery"}, "IL-6 [6]": {"tested_on": "IL-6", "assay": "ELISA of IL-6 in the serum", "settings": "young mice, 100 mg/kg intraperitoneal 1 h before and 6 h after 120-min MCAO; 24 h after MCAO; vs saline", "experimental": "Mice were weighed and anesthetized with isoflurane at 24 h after MCAO. Blood samples were obtained from the right heart after thoracotomy. Blood was centrifuged (13,000 g, 4° C.) after it had been placed at 4° C. for 2 h for the collection of serum. After the collection of blood, mice were perfused with 4° C. saline for brain tissue harvesting. The cerebral cortex (anteroposterior: −1.5 to 2.5 mm, mediolateral: 1.0 to 3.0 mm) was dissected out. All dissection procedures were performed on ice.\nIL-10, IL-17, IL-1β and IL-6 in the serum and brain were detected by using ELISA kits (catalog number: M1000B, M1700, MLB00C and D6050, R&D SYSTEM, Inc., Minneapolis, MN, USA) as we described before. The brain tissues were homogenized on ice in the RIPA buffer containing 25 mM Tris-HCl with pH 7.6, 150 mM NaCl, 1% sodium deoxycholate and 0.1% SDS (catalog number: 89901, Thermo Scientific, Rockford, IL, USA) and a protease inhibitor cocktail containing 10 mg/ml aproteinin, 5 mg/ml peptastin, 5 mg/ml leupetin and 1 mM phenylmethane sulfonylfluoride (catalog number: SRE0055, Sigma-Aldrich, St. Louis, MO, USA). The supernatant was collected for ELISA detection after being centrifuged for 20 min (13,000 g, 4° C.) and the protein concentration was determined by the BCA method. Cytokines in the serum and supernatant of brain were detected according to the manufacturer's instruction. […]"}, "[7]": {"settings": "13-week old mice without surgery, intracerebroventricular 4 mg/kg once daily for 4 days (1/50 dose of intraperitoneal injection)"}, "[8]": {"settings": "young adult mice with exercise and surgery, valeric acid 200 mg/kg intraperitoneal once a week vs normal saline"}}, "note": "“Also recorded” adds a separate entry of the source.", "data": [{"smiles": "CCCCC(=O)O", "note": "[valeric acid]", "values": [{"measurement": "performance in the Barnes maze", "setting": "C57BL/6J mice [1]; [7]", "value": "did not affect the performance"}, {"measurement": "time to identify target box in the Barnes maze test", "setting": "C57BL/6J mice [1]; [8]", "value": "reversed the effects of exercise"}, {"measurement": "performance in novel object recognition test", "setting": "C57BL/6J mice [2]; [7]", "value": "did not affect the performance"}, {"measurement": "performance in novel object recognition test", "setting": "C57BL/6J mice [2]; [8]", "value": "abolished"}, {"measurement": "exercise-induced reduction of IL-6 in the hippocampus", "setting": "IL-6 [3]", "value": "this reduction was blocked"}, {"measurement": "exercise attenuation of the decrease of intersections among dendritic branches", "setting": "[4]", "value": "this attenuation was blocked"}, {"measurement": "exercise attenuation of the decrease of spine density in the hippocampus", "setting": "[4]", "value": "this attenuation was blocked"}, {"measurement": "butyric acid in the blood", "setting": "[5]", "value": "attenuated this reduction"}, {"measurement": "hexanic acid in the blood", "setting": "[5]", "value": "attenuated this reduction"}, {"measurement": "valeric acid in the blood", "setting": "[5]", "value": "attenuated this reduction; also recorded: did not increase"}, {"measurement": "IL-6 in the blood", "setting": "IL-6 [6]", "value": "increased"}]}]}
